According to PMC12393591, “Targeting Plasminogen Activator Inhibitor-1 with a Novel Small Molecule Inhibitor Attenuates Lung Fibrosis” (Research Square, 2025):
Where two headings read alike, the source gives them in different places.

Key:
[1] = tested on: idiopathic pulmonary fibrosis; design: method as in PMID 40387033; details: patients with IPF, phase 3 clinical trial; cited from earlier work
[2] = Non-GLP single dose PK, oral gavage; assay type: in vivo, CD-1 mice; details: mouse plasma, single dose 30 mg/kg oral gavage, n=3, mean ± SD
Procedure: A non-GLP comparative, single dose PK analysis of MDI-2268 versus MDI-2517 was performed by the University of Michigan Pharmacokinetics Core in CD-1 mice. Briefly, MDI-2268 or MDI-2517 were suspended in 0.5% methylcellulose in water and given orally by gavage at 30 mg/kg (10mL/kg) to 3 mice each. Blood was collected by using heparinized calibrated pipettes at 0.5h, 2h, 4h, and 7h and centrifuged immediately at 15,000g for 10 min. The plasma was collected, which was frozen at −80°C for later LC-MS analysis.

[3] = target: recombinant active human PAI-1 (Homo sapiens, UniProt P05121); test: PAI-1 inhibitory activity against uPA (fluorogenic uPA substrate); assay type: biochemical; details: for IC50: read-out: IC50 for inhibiting the activity of PAI-1 against uPA
Chain of recombinant active human PAI-1 (P05121 24-402): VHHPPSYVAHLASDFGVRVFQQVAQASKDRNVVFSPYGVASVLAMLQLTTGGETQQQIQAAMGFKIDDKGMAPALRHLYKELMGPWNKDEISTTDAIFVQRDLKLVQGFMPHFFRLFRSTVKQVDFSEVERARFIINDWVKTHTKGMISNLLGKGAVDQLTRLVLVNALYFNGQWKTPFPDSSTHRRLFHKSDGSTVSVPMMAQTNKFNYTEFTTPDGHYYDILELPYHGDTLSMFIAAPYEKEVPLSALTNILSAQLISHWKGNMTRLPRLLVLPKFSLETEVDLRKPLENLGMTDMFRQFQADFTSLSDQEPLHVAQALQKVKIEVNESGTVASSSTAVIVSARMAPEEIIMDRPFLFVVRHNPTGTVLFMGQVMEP
Procedure: At each drug concentration, parallel control reactions without PAI-1 were assembled. Residual enzymatic activity was determined by addition of an equal volume of 100 μM Z-Gly-Gly-Arg-AMC (Calbiochem) fluorogenic uPA substrate, and the rate of AMC release monitored at 23°C (excitation 370 nm and emission 440 nm). The percent change in PAI-1 activity was determined according to Eq. 1: [(Ei – Pi) / Ei] / [(E0 - P0) / E0], where Ei is the enzyme activity at drug concentration i; Pi is the enzyme activity in the presence of PAI-1 at drug concentration i; E0 is the enzyme activity in the absence of drug; and P0 is the enzyme activity in the presence of PAI-1 but in the absence of drug. Data were then plotted as the residual PAI-1 activity as a percentage of the control PAI-1 activity vs. compound concentration and from these curves the IC50 of each compound was calculated.

[4] = tested on: lung fibrosis induced by targeted type II alveolar epithelial cell injury; details: model of targeted AEC2 injury; previously shown by the authors; cited from earlier work
[5] = tested on: lung fibrosis induced by targeted type II alveolar epithelial cell injury; test: Targeted AEC2 injury model (diphtheria toxin in DTR mice; hydroxyproline, weight, histology); assay type: in vivo, DTR-expressing mice (C57BL/6 background); details: 60 mg/kg twice daily
[6] = tested on: bleomycin-induced lung fibrosis; test: Single-dose bleomycin lung injury model (hydroxyproline, weight, histology); assay type: in vivo, C57BL/6 mice
Procedure: Weight and age matched mice were anesthetized with isoflurane and received an oropharyngeal instillation of bleomycin (2.5 u/kg in 50 μL of sterile PBS) (Sigma Pharmaceuticals). Control mice received 50 μl of PBS alone. Mice were intermittently weighed through day 21. Hydroxyproline content of the lung was measured as previously described. The left lung was inflation-fixed at 25 cm H2O pressure with 10% neutral-buffered formalin, removed en bloc, further fixed in 10% neutral-buffered formalin overnight, and then paraffin embedded. Five-micron sections were stained using hematoxylin and eosin, and picrosirius red methods.

[7] = tested on: bleomycin-induced lung fibrosis; design: method as in PMID 26859294; details: mice following bleomycin injury; cited from earlier work
[8] = tested on: TGFβ-expressing adenovirus-induced lung fibrosis; design: method as in PMID 21852684; details: started 4 days after fibrosis initiation; cited from earlier work

Structure (SMILES): [O-][S+]1CCc2nc(N3CCC(c4ncc(Cl)cn4)CC3)nc(NC3(CO)CCC3)c21 (stereo not shown) [BI 1015550]
- rate of lung function decline [1]: reduced the rate of lung function decline

Structure (SMILES): NNC(=O)C(=O)NCc1cccc(OC(F)(F)F)c1 [MDI-2268]
- AUC0-7h obs [2]: 7405 ± 1302 ng·h/mL
- IC50 ([3]; buffer containing 10% human PAI-1-depleted plasma): 67 µM
- IC50 ([3]; buffer with 50 nM purified human vitronectin): 75 µM
- IC50 ([3]; in buffer alone): 140 µM
- fold more effective than Tiplaxtinin at inhibiting PAI-1 ([3]; in the presence of VTN): greater than 7 fold

Structure (SMILES): COC(=O)c1ccc2c(c1)NC(=O)/C2=C(\Nc1ccc(N(C)C(=O)CN2CCN(C)CC2)cc1)c1ccccc1 [Nintedanib]
- severity of pulmonary scarring [4]: attenuate the severity of pulmonary scarring
- lung hydroxyproline content day 21 ([5]; 10 days from day 11): statistically significantly reduced
- weight loss vs vehicle-treated injured group ([5]; 10 days from day 11): mitigated the severity of the weight loss
- histopathologic changes (alveolar wall thickening, picrosirius red staining) ([5]; 10 days from day 11, day 21): significantly attenuated
- body weight vs vehicle ([6]; 60 mg/kg twice daily from day 11): recovery of body weight
- lung collagen content (hydroxyproline) day 21 ([6]; 60 mg/kg twice daily, 10 days from day 11): statistically significantly attenuated
- areas of lung consolidation, picrosirius red histopathology ([6]; 60 mg/kg twice daily, 10 days from day 11, day 21): significantly attenuated

Structure (SMILES): CC(C)(C)c1ccc2oc(-c3ccc4cc(OCCCCCC(C(=O)[O-])C(=O)[O-])ccc4c3)nc2c1.[Na+].[Na+] [SK-216]
- lung fibrosis [7]: modestly attenuate lung fibrosis

Structure (SMILES): O=C(COCC(=O)N1CCN(C(c2ccccc2)c2ccccc2)CC1)Nc1ccc(Cl)cc1C(=O)O [TM5275]
- lung collagen accumulation [8]: significantly decrease lung collagen accumulation

Structure (SMILES): Cc1ccc(=O)n(-c2ccccc2)c1 [pirfenidone]
- severity of pulmonary scarring [4]: attenuate the severity of pulmonary scarring
